In article PMC4891657, “Orexin 2 Receptor Antagonism is Sufficient to Promote NREM and REM Sleep from Mouse to Man” (Scientific Reports, 2016):
Read-outs that look alike come from different tables or passages of the source.

What was measured:
Dog plasma free fraction = assay type: in vitro ADME
sleep = assay: Polysomnography in healthy male subjects; assay type: in vivo, human
Procedure: In the PSG study, subjects underwent 8-hour PSG recording periods beginning 1 hour after nighttime administration of MK-1064 (50, 120 and 250 mg) or placebo. […] Dose-dependence of the effects of MK-1064, while not evaluated statistically, was most pronounced with regard to LPS, LREM and REM sleep, and to a lesser extent, TST and WASO sleep (Fig. 7b).
Figure 7 MK-1064 promotes sleep in healthy subjects. MK-1064 (50, 120 and 250 mg) or placebo were administered 1 hour prior to the normal resting phase in healthy subjects (N = 20), and PSG effects were monitored during the normal resting phase.
Twenty healthy male subjects between the ages of 18 and 45 years were recruited to a double-blind, randomized, 4-period, crossover study to evaluate the effects of single doses of MK-1064. Subjects were without a history of physical or mental illnesses, had no history of sleep abnormalities, and were not regularly taking medication. Subject inclusion required a sleep score ≤6 on the Pittsburgh Sleep Quality Index at the time of screening, and qualified subjects underwent a PSG screening prior to randomization to exclude those with latent sleep disturbances. In each of the 4 treatment periods, subjects were randomized to receive single doses of MK-1064 (50, 120, or 250 mg) or matching placebo according to a balanced crossover design (see Fig. 5). Briefly, 20 subjects were randomized to 4 panels (n = 5 each). Each panel then received each of the four treatments (placebo, 50, 120, 250 mg MK-1064) in 4 different study periods where each period allocated the 4 different treatments to the 4 different subject panels. Progression through each period rotated the 4 different treatments among the subject panels such that each panel ultimately received all 4 treatments. In all 4 study periods, subjects were admitted for a pre-dose habituation night. On the following treatment night, subjects were administered a single dose of study medication in a blinded manner approximately 1 hour before their habitual bedtime. Study medication was administered following a ≥4-hour fast. Dosing in different treatment periods was separated by a washout of at least 7 days for each subject. PSG recording commenced at 1 hour post-dose and continued during undisturbed sleep for 8 hours overnight. Visual scoring of each 30-sec epoch of PSG recording to wake or one of four sleep states (S1, S2, SWS, collectively referred to as NREM, and REM) was performed according to standard and established Rechtschaffen and Kales criteria. Obtained scores were then used to calculate efficacy assessment measures including latency to persistent sleep (LPS) (min), wake after sleep onset (WASO) (min), sleep efficiency (SE) (%), and total sleep time (TST) (min). LPS is the time from lights off to the first epoch of 20 consecutive epochs of non-wake stage; WASO is the time in wake stage between the onset of persistent sleep and the time of lights on; and SE is the proportion of time between lights off and lights on that was spent in sleep. In addition to efficacy parameters, latency to REM (LREM) (min), equal to the time from lights off to the first epoch of REM, and the proportion (%) of TST spent in NREM and REM were calculated. Estimation of the effects of treatment on PSG endpoints relative to placebo, including the calculation of confidence intervals and p-values were done using a mixed-effect statistical model typical for crossover studies. Specifically, logarithm of an analyzed endpoint represented the response variable, and treatment dose, treatment period, and carryover effect were fixed-effect explanatory variables. Subject effect was the random effect with the within-subject covariance assumed to be of the unstructured type. […] SAS/STAT® Version 9.3 software (SAS Institute, Cary NC) was used in the analysis.

sleep/wake stages = assay: Polysomnography in telemetered dogs; assay type: in vivo, dog
Procedure: The mean time spent in sleep stages was determined in radio-telemetry–implanted mice, rats, and dogs, as described previously[1][14][40][42]. Continuous PSG recordings were performed following oral MK-1064 or vehicle (20% vitamin E d-alpha tocopheryl polyethylene glycol 1000 succinate [TPGS]) administration. In rodents, electrocorticogram (ECoG) and electromyogram (EMG) and locomotor activity measured via radio-telemetry were scored in 10 second epochs to define light sleep (LS; no movement, moderate EMG tone, theta with <50% delta ECoG [0.5–4 Hz]), slow wave sleep (SWS; no gross movement, reduced EMG, >50% delta ECoG) and rapid eye movement sleep (REM; no movement, little to no EMG activity, primarily theta ECoG [4–7 Hz] activity)[42]. Scored data were then grouped and compiled according to condition (vehicle or compound treatment) averaged over the indicated times (30 minutes or 2 hours) and analyzed statistically as previously described[1][14][40][42] […]
Mean times in active wake, NREM I, NREM II, and REM sleep were monitored continuously. Vehicle and compound treatment conditions were consolidated into 24-hour periods for each animal, and the mean time spent in each sleep stage for the 2 hours following treatment was determined and significance determined by t-test.

[1] = Pharmacokinetics, ascending single-dose study in healthy male subjects; assay type: in vivo; conditions: human, plasma, single oral doses 5 to 250 mg; for half-life: male, po
Procedure: In the ascending single-dose study, doses of MK-1064 ranging from 5 to 250 mg corresponded with dose-dependent changes in measured plasma levels (Fig. 6a). […] The greatest effects were observed between 1 and 4 hours, and effects greatly diminished 8 hours following treatment, consistent with the time course of plasma concentrations of MK-1064.
MK-1064 safety, PK and PD were evaluated in a randomised, double-blind, placebo-controlled, alternating panel, single oral ascending-dose first-in-human study (see Fig. 5). Participants were unmedicated healthy male subjects (age 18–45 years) without a history of physical or mental illnesses or sleep abnormalities. Two panels received alternating single ascending oral doses of MK-1064 in up to 5 treatment periods (Panel A: 5, 25, 100 and 200 mg [fasting conditions], 25 mg [fed condition], or matching placebo; Panel B: 10, 50, 150 and 250 mg [all daytime administration], 50 mg [evening administration], or matching placebo). Within each period, subjects were randomized to active treatment (N = 6) and placebo (N = 2) groups. There was a minimum of 3 days between ascending doses occurring between alternating subject panels to enable safety data review; treatments within subject panels were separated by a minimum 7-day washout period. The safety and tolerability of MK-1064 were monitored throughout the study by repeated evaluations of AEs, clinical assessments (semi-recumbent and orthostatic vital signs measurements, 12-lead electrocardiograms (ECGs), physical examinations, neurologic examinations), and safety laboratory tests (chemistry, hematology, urinalysis).
During each treatment period, blood was collected for PK analysis pre-dose and at time points up to 72 hours post-dose. MK-1064 plasma concentrations were determined by reverse phase high-performance liquid chromatography and detected with tandem mass spectrometry. The lower limit of quantitation was 1 ng/mL and the linear calibration range was 1–1000 ng/mL. PK parameters were calculated with WinNonLin 5.2.1. Values below the assay limit of quantification were indicated with a zero value. PD effects on arousal and mood were assessed by the Karolinska Sleepiness Scale (KSS)[45] and Bond and Lader Visual Analogue Scale (VAS)[46] in exploratory endpoints.

[2] = healthy subjects, two highest doses (120, 250 mg)

SMILES: COc1ccc(CNC(=O)c2cc(-c3cncc(Cl)c3)cnc2-c2ccccn2)nc1OC [MK-1064, 5″-chloro-N-[(5,6-dimethoxypyridin-2-yl)methyl]-2,2′:5′, 3″-terpyridine-3′-carbo xamide]
- fraction unbound (Dog plasma free fraction): 0.286
- time spent in Stage 2 (sleep; healthy subjects, 120 mg): significant increase
- LPS as fraction of placebo response (sleep; healthy subjects, 50, 120 and 250 mg (all doses)): significant reductions
- WASO as fraction of placebo response (sleep; [2]): significant reductions
- reduction in LREM versus placebo (sleep; [2]): statistically significant
- NREM sleep (sleep; healthy subjects, two lower doses (50, 120 mg)): increases in NREM sleep
- time spent in Stage 1 and SWS (sleep; healthy subjects, vs placebo): not significantly different from placebo
- active wake (with increases in NREM I, NREM II and REM sleep) (sleep/wake stages; 1 mg/kg oral, 1 hour following administration vs vehicle): Significant active wake reductions
- REM sleep in the hour following administration (sleep/wake stages; 20 mg/kg oral, vs vehicle, increased at several later time points): not significantly increased
- Cmax [1]: 0.37 to 8.28 µM
- Tmax ([1]; read-out: median time of peak concentrations (Tmax)): 1 to 2 h
- half-life ([1]; read-out: alpha phase half-life): 1.6 to 4 h
- half-life ([1]; read-out: mean apparent terminal half-life): 6.8 to 11.1 h
